# Measured values published in patent US20050261239A1, “Use of ATP for the manufacture of a medicament for treating certain inflammatory conditions, oxidative stress and fatigue” (Universiteit van Maastricht, priority 2004, published 2005).
# Entries after “also recorded” stand apart in the source; their conditions may differ. Read-outs that look alike come from different tables or passages of the source.
# Key:
# TNF-α [1] = assay: Purinergic compounds on LPS+PHA-induced TNF-α secretion in whole blood, Experiment 3; format: cell-based, human; conditions: for inhibiting TNFα production in LPS-PHA stimulated whole blood, compared with ATP: pretreatment of whole blood, initial findings, ATP compared with ADP, AMP or adenosine; for effect on LPS+PHA-induced TNF-α release (FIG. 8): compound at 300 μM, 24 h, order of inhibition adenosine<AMP<ADP<ATP; for anti-inflammatory effects relative to those of ATP: same whole blood model ex vivo
# Experimental: (§1) Blood is collected as described for Experiment 1. Whole blood is then aliquoted into 24-well sterile plates and diluted 1:4 with RPMI 1640 (supplemented with L-glutamine). To induce cytokine production, PHA and bacterial LPS are added to whole blood at 1 μg/ml and 10 μg/ml respectively. After addition of ATP and stimulants, the plates are incubated in 5% CO2 at 37° C. for 24 h. Cell-free supernatant fluids are then collected by centrifugation (6000 rpm, 10 min at 4° C.) and stored at −20° C. until tested for presence of cytokines. All incubations are performed in duplicate. ATP, dissolved in RPMI 1640 culture medium, is added to the blood at a final concentration of 1-1000 μM. Blood is pre-incubated with ATP at 5% CO2 at 37° C. for 30 min before stimulation with LPS+PHA. The agonists are added in the same way as ATP, however their stock solutions are prepared in PBS and further diluted in medium.
# IL-10 [2] = assay: Purinergic compounds on LPS+PHA-induced IL-10 release in whole blood, Experiment 3; format: cell-based, human; conditions: pretreatment of whole blood; initial findings; ATP compared with ADP, AMP or adenosine
# Experimental: as §1
# [3] = test system: mice bearing colon tumour; conditions: daily intraperitoneal injections of 25 mmol/L for 10 consecutive days (refs 9, 10), cited from earlier work
# IL-10 [4] = assay: LPS+PHA-induced IL-10 secretion in whole blood ex vivo (ELISA), Experiment 1; format: cell-based, human; conditions: 24 h
# Source text: (§2) For the first experiment, purified phyto-haemagglutinin HA16 (PHA) and E. Coli 0.26: B6 lipopolysaccharide (LPS) were from Murex, Dartford, UK and Sigma Chemical Co, St. Louis, USA, respectively. Human TNF-α (7300 pg/ml) was obtained from CLB/Sanquin, The Netherlands. RPMI 1640 medium containing L-glutamine was obtained from Gibco, UK. Adenosine-5′-triphosphate disodium salt (ATP) was purchased from Calbiochem, USA.
# (§3) Blood was collected from 8 healthy subjects in heparin containing vacutainer tubes (Vacutainer, Becton-Dickinson, 170 I.U). […] Whole blood was aliquoted into 24-well sterile plates and diluted 1:4 with RPMI 1640 (supplemented with L-glutamine). To induce cytokine production, PHA and bacterial LPS were added at 1 μg/ml and 10 μg/ml final concentration respectively. […]
# (§4) All cytokines were quantified by means of PeliKine Compact human ELISA kits (CLB/Sanquin, The Netherlands), based on appropriate and validated sets of monoclonal antibodies. […] The antibody on the microtiter plate then captured the cytokine present in a measured volume of sample or standard, and non-bound material was removed by washing. […] Color development was stopped by addition of sulfuric acid and the intensity of the color was measured by a microtiter plate reader (absorbance at 450 nm). The absorbance was transformed to cytokine concentrations (ng/L) using the standard curve. […]
# [5] = test system: patients with non-small cell lung cancer; conditions: 8 stage IIIB/IV patients; 2 to 3 intravenous courses of 96 hours at 4-week intervals (ref 11); cited from earlier work
# TNF-α [6] = assay: LPS+PHA-induced TNF-α secretion in whole blood under oxidative stress (H2O2), Experiment 2; format: cell-based, human; conditions: whole blood with 1 or 10 mM H2O2, 24 h; effect at 100 and 300 μM ATP; disodium salt
# Experimental: (§5) Blood was collected from 8 healthy subjects in heparin containing vacutainer tubes (Vacutainer, Becton-Dickinson, 170 I.U). […] Whole blood was aliquoted into 24-well sterile plates and diluted 1:4 with RPMI 1640 (supplemented with L-glutamine). To induce cytokine production, PHA and bacterial LPS were added at 1 μg/ml and 10 μg/ml final concentration respectively. After adding the concentrated solutions of ATP and the stimulants the plates were incubated in 5% CO2 at 37° C. for 24 h. After the incubation cell-free supernatant fluids were collected by centrifugation (6000 rpm, 10 min at 4° C.) and stored at −20° C. until tested for presence of cytokines.
# as §4, with “antibodies. Assays were performed as follows.” for “antibodies.”
# IL-6 [7] = assay: LPS+PHA-induced IL-6 secretion in whole blood under oxidative stress (H2O2), Experiment 2; format: cell-based, human; conditions: whole blood with 1 or 10 mM H2O2, 24 h; ATP 1-300 μM; disodium salt
# Experimental: as §5
# as §4, with “antibodies. Assays were performed as follows.” for “antibodies.”
# [8] = test system: patients with non-small cell lung cancer; conditions: 15 newly diagnosed patients; after 4 ATP courses (ref 12); cited from earlier work
# IL-6 [9] = assay: LPS+PHA-induced IL-6 secretion in whole blood ex vivo (ELISA), Experiment 1; format: cell-based, human; conditions: whole blood of healthy subjects, 24 h; ATP 1-300 μM; disodium salt
# Source text: as §2, §3, §4
# [10] = test system: healthy non-smoking human subjects; assay: Lactulose/rhamnose (L/R) intestinal permeability test after indomethacin, Experiment 4; format: in vivo; conditions: indomethacin (75 mg + 50 mg) and ATP into duodenum vs indomethacin only; 5 h urine
# Experimental: Methods Intestinal permeability is tested in healthy non-smoking human subjects using the lactulose/rhamnose (L/R) intestinal permeability test. This barrier function test is based on the comparison of intestinal permeation of molecules of different sizes by measuring the ratio of urinary excretion of the disaccharide lactulose and the monosaccharide rhamnose. These two sugars follow different routes of intestinal permeation, i.e., lactulose permeates through the paracellular pathway, whereas rhamnose permeates transcellulary. The experiments are performed as follows: at t=−14 hrs, a Bengmark-type naso-intestinal tube (Flocare, Zoetermeer, The Netherlands) is installed into the stomach. Next, at t=−10 hrs, subjects ingest a capsule of indomethacin (75 mg) immediately followed by administration of either ATP or placebo directly into the subject's duodenum through the inserted tube. At t=−1 hr, after an overnight fast, subjects receive a second dose of indomethacin (50 mg) followed by either ATP or placebo. Then, at t=0, the permeability test is performed as follows: subjects ingest a hyperosmolar drink containing 5 g of lactulose and 0.5 g of L-rhamnose dissolve d in […] water. After ingestion of the hyperosmolar test drink, total urine produced over 5 hours is collected.
# cancer patients = assay: Safety of intravenous ATP home infusions in cancer patients; format: in vivo, human; conditions: over 60 intravenous home infusions in cancer patients
# Source text: In order to determine the tolerance for ATP as well as the maximally tolerated dose of ATP, the first ATP infusion is preferably administered under medical supervision, usually in an in- or outpatient setting. Subsequent infusions can either be started at the hospital day care centre, at private homes, nursing homes, etc. according to a standardized protocol.
# [11] = test system: advanced non-small-cell lung cancer patients; conditions: cited from earlier work
# TNF-α [12] = assay: LPS+PHA-induced TNF-α secretion in whole blood ex vivo (ELISA), Experiment 1; format: cell-based, human; conditions: 24 h
# Source text: as §2, §3, §4
# IL-10 [13] = assay: LPS+PHA-induced IL-10 secretion in whole blood under oxidative stress (H2O2), Experiment 2; format: cell-based, human; conditions: whole blood with 1 or 10 mM H2O2, 24 h; ATP 1-300 μM; disodium salt
# Experimental: as §5
# as §4, with “antibodies. Assays were performed as follows.” for “antibodies.”
# [14] = whole blood of healthy subjects, effect at 100 and 300 μM ATP (tested 1-300 μM), disodium salt
smiles,measurement,setting,value
"CSc1nc(N)c2ncn([C@@H]3O[C@H](COP(=O)(O)OP(=O)(O)OP(=O)(O)O)[C@@H](O)[C@H]3O)c2n1 [2-MeS-ATP, reference compound]","inhibiting TNFα production in LPS-PHA stimulated whole blood, compared with ATP",TNF-α [1],at least partly mimicked
same,"stimulating IL-10 production in LPS-PHA stimulated whole blood, compared with ATP",IL-10 [2],at least partly mimicked
Nc1ncnc2c1ncn2[C@@H]1O[C@H](COP(=O)(O)OP(=O)(O)O)[C@@H](O)[C@H]1O [ADP],effect on LPS+PHA-induced TNF-α release (FIG. 8),TNF-α [1],inhibited
same,anti-inflammatory effects relative to those of ATP,TNF-α [1],less marked
Nc1ncnc2c1ncn2[C@@H]1O[C@H](COP(=O)(O)O)[C@@H](O)[C@H]1O [AMP],host weight loss,[3],significant inhibition of host weight loss
same,effect on LPS+PHA-induced TNF-α release (FIG. 8),TNF-α [1],inhibited
same,anti-inflammatory effects relative to those of ATP,TNF-α [1],less marked
"Nc1ncnc2c1ncn2[C@@H]1O[C@H](COP(=O)([O-])OP(=O)([O-])OP(=O)(O)O)[C@@H](O)[C@H]1O.[Na+].[Na+] [ATP, Adenosine-5′-triphosphate disodium salt]",stimulation of the IL-10 production,"IL-10 [4]; 300 μM ATP, whole blood, 10 μg/ml LPS + 1 μg/ml PHA, vs stimulation without ATP",62%
same,effect on LPS+PHA-induced IL-10 release,IL-10 [4]; [14],increased the release of IL-10; also recorded: significantly increased
same,body weight,[5],stabilisation of body weight
same,effect on LPS+PHA-induced TNF-α release under oxidative stress,TNF-α [6],dose-dependent reduction; also recorded: significantly inhibited
same,effect on LPS+PHA-induced IL-6 release under oxidative stress,IL-6 [7],no effect; also recorded: not influenced
same,average weight gain,[8],1.3 kg
same,effect on LPS+PHA-induced IL-6 release,IL-6 [9],failed to significantly alter; also recorded: not influenced
same,urinary concentration ratio of lactulose relative to rhamnose,[10],lower
same,hospital admissions,cancer patients,No hospital admissions were necessary
same,serious side effects on the WHO Common Toxicity Criteria scale,cancer patients,no serious side effects grade 3-4
same,"physical and functional quality of life, appetite, and muscle strength","[11]; ATP group, progressively deteriorated in control group (ref 13)",remained stable
same,life-threatening side effects,"[11]; ATP infusion during 30 hrs, previous study (13)",did not find any life-threatening side effects
same,plasma levels of pro- or anti-inflammatory cytokines,"[11]; further analyses, Dagnelie et al. 2003, unpublished data",no effect
same,loss of weight and muscle mass,[11]; regular infusions vs control group with supportive care only (ref 13),inhibited loss of weight and muscle mass
same,host weight loss,[3],significant inhibition of host weight loss
same,inhibition at 300 µM,"TNF-α [12]; Homo sapiens, 300 μM ATP, whole blood, 10 μg/ml LPS + 1 μg/ml PHA, vs stimulation without ATP, read-out: inhibition of the TNF-α production",65%
same,effect on LPS+PHA-induced TNF-α release,TNF-α [12]; [14],dose-dependent inhibition; also recorded: significantly inhibited
same,effect on LPS+PHA-induced TNF-α release (FIG. 8),TNF-α [1],greatest inhibition
same,"inhibiting TNFα production in LPS-PHA stimulated whole blood, compared with ATP",TNF-α [1],more effective
same,effect on LPS+PHA-induced IL-10 release under oxidative stress,IL-10 [13],"significant, dose-dependent rise; also recorded: significantly increased"
same,"stimulating IL-10 production in LPS-PHA stimulated whole blood, compared with ATP",IL-10 [2],more effective
Nc1ccn([C@@H]2O[C@H](COP(=O)(O)OP(=O)(O)OP(=O)(O)O)[C@@H](O)[C@H]2O)c(=O)n1 [CTP],effect on LPS+PHA-induced TNF-α release (FIG. 8),TNF-α [1],not inhibited
O=c1ccn([C@@H]2O[C@H](COP(=O)(O)OP(=O)(O)O)[C@@H](O)[C@H]2O)c(=O)[nH]1 [UDP],effect on LPS+PHA-induced TNF-α release (FIG. 8),TNF-α [1],not inhibited
"O=c1ccn([C@@H]2O[C@H](COP(=O)(O)OP(=O)(O)OP(=O)(O)O)[C@@H](O)[C@H]2O)c(=O)[nH]1 [UTP, uridine 5′-triphosphate]",effect on LPS+PHA-induced TNF-α release (FIG. 8),TNF-α [1],not inhibited
Nc1ncnc2c1ncn2[C@@H]1O[C@H](CO)[C@@H](O)[C@H]1O [adenosine],host weight loss,[3],significant inhibition of host weight loss
same,host weight loss,[3]; listed as adenosine without phosphate,ineffective
same,effect on LPS+PHA-induced TNF-α release (FIG. 8),TNF-α [1],least inhibition
